Measured values reported in paper PMC6394990, “Detailed characterization of the solution kinetics and thermodynamics of biotin, biocytin and HABA binding to avidin and streptavidin” (PLoS ONE, 2019).
Where “and” joins values, the source holds several entries; their conditions need not be identical. Equal values may be shown once. Read-outs that look alike come from different tables or passages of the source.

Columns and labels:
streptavidin (SAV) [1] = biological target: T1, streptavidin (SAV) (Streptomyces avidinii, UniProt P22629); conditions: SAV-B7, cited from earlier work
T1 construct: purchased Sigma Aldrich (St. Louis, MO)

avidin (AV) = biological target: T2, avidin (AV) (Gallus gallus, UniProt P02701); assay: Fluorescence lifetimes, AV complex; format: physicochemical; conditions: for Lifetime τ: AV complex (AB1), 20°C, pH 8; for t (1), fluorescence lifetime: complex with AV, t for BFl and BcO, average lifetime for B-DNAds*Fl, in ns
T2 construct: purchased Calbiochem (La Jolla, CA)
Method: (§1) The lifetimes (τ), steady state anisotropies (rss), time-resolved anisotropies (rt) and quantum yields (QY) of the complexes (at 20 ± 0.1°C and pH 8) were collected with a dye-labeled B7 probe concentration of 20–40 nM and 1040–2080 nM of either protein (AV or SAV) to ensure that only one binding site in the tetramer was filled with a ligand (AB1 filling model).
(§2) The lifetimes were collected in a FluoTime100 fluorescence spectrometer (PicoQuant, GmbH, Berlin, Germany) with the excitation light source provided by a picosecond pulsed diode laser (PicoQuant, GmbH, Berlin, Germany) at 470 nm and 20 MHz. The emission was collected at 520 nm through a non-fluorescing 520 nm interference filter (Oriel Corp., Stratford, CT) followed by a liquid filter of 1cm path length containing 24 mM acetate buffered dichromate at pH 4, between the sample and detector to eliminate traces of excitation light. The fluorescence decays were fit by a nonlinear least-squares minimization based on the Marquardt algorithm embedded in the Fluofit software (PicoQuant GmbH). Twenty-eight decays were collected per sample, the decays were grouped in four sets, consisting of seven sample decays and one Instrument Response Function, IRF, for deconvolution proposes. The decay sets were globally fitted to mono- or bi-exponential decay models that were discriminated using the statistical parameter χ^2. The rt data were acquired with the fluorimeter described above equipped with a polarizer and an analyzer to acquire the parallel VV(t) and perpendicular VH(t) decays. The PicoQuant G factor was calculated according to: G = ∫HV(t)dt/∫HH(t)dt, where HV(t) and HH(t) were the decays collected with the emission polarizer selecting vertical and horizontal E-vector passing orientations, respectively, and the excitation polarizer set at horizontally position.

[2] = Quantum yields (QY), unbound probe; format: physicochemical; conditions: unbound dye
Method: as §1
(§3) The QY values were obtained by using a reference fluorophore of known quantum yield and were calculated according to Parker and Rees, where the reference dye was fluorescein in 0.1N sodium hydroxide solution [46]. The emission fluorescence scans were collected from 480 nm to 700 nm with the excitation light set at 460 nm provided by the xenon arc lamp described above. These measurements were made on the AB1 complexes at high protein concentration.

streptavidin (SAV) [3] = biological target: T1, streptavidin (SAV); assay: Quantum yields (QY), SAV complex; format: physicochemical; conditions: for dQY-SAV: fractional change of QY, SAV complex against dye
Method: as §1, §3

[4] = Steady-state anisotropy (rss), unbound probe; format: physicochemical
Method: as §1
The rss measurements were collected using the Giblin-Parkhurst modification of the Wampler-Desa method as described previously. The fluorescence signal was detected in a model A-1010 Alphascan fluorimeter (Photon Technologies, Inc., Birmingham, NJ) equipped with an R928 PMT (Hamamatsu, Bridgewater, NJ). The excitation was provided by an Ar^+ ion laser (Coherent Innova 70–4 Argon, Santa Clara, CA) at 488 nm and 5–10 mW of power incident on the sample. […] The fluorimeter G factor was determined using a film polarizer and analyzer with an excitation at 488 nm provided by a xenon arc lamp (model A1010, Photon Technologies Inc, Princeton, NJ). The dissociation reactions of dye-labeled B7 and protein complexes were monitored by fluorescence changes and were also collected in the fluorimeter described above.

streptavidin (SAV) [5] = biological target: T1, streptavidin (SAV); assay: Steady-state anisotropy (rss), SAV complex; format: physicochemical; conditions: for Steady State Anisotropy rss: SAV complex (AB1), 20°C; for SAV-increment (%): increase of rss against unbound; for rss, + SAV: steady-state anisotropy
Method: as §1
The rss measurements were collected using the Giblin-Parkhurst modification of the Wampler-Desa method as described previously. The fluorescence signal was detected in a model A-1010 Alphascan fluorimeter (Photon Technologies, Inc., Birmingham, NJ) equipped with an R928 PMT (Hamamatsu, Bridgewater, NJ). The excitation was provided by an Ar^+ ion laser (Coherent Innova 70–4 Argon, Santa Clara, CA) at 488 nm and 5–10 mW of power incident on the sample. A photoelastic modulator (PEM-80; HINDS International, Inc., Portland, OR) was placed between the laser source and the sample compartment with a retardation level of 1.22π, and the PEM stress axis orientated 45° with respect to the E vector of the laser beam. Two signals were acquired with the PEM alternating between “on” and “off” positions for 10 seconds and the data fitted to a least squared straight line to minimize noise. A minimum of six of these independent measurements were averaged to acquire the rss values. The fluorimeter G factor was determined using a film polarizer and analyzer with an excitation at 488 nm provided by a xenon arc lamp (model A1010, Photon Technologies Inc, Princeton, NJ). The dissociation reactions of dye-labeled B7 and protein complexes were monitored by fluorescence changes and were also collected in the fluorimeter described above.

[6] = Time-resolved anisotropy, cone angle, unbound probe; format: physicochemical; conditions: unbound dye
Method: as §2, with “Twenty-eight decays were collected per sample, the decays were grouped in four sets, consisting of seven sample decays and one Instrument Response Function, IRF, for deconvolution proposes. The decay sets were globally fitted to mono- or bi-exponential decay models that were discriminated using the statistical parameter χ^2. The rt data were acquired with the fluorimeter described above equipped with a polarizer and an analyzer to acquire the parallel VV(t) and perpendicular VH(t) decays.” left out, “position. […]” for “position.”
(§4) In a simple model, the transition moment is assumed to wobble within a cone of semi-apical angle Ω [59], where the cone axis is normal to the surface of a sphere that corresponds to the macromolecule. The angle Ω is calculated from Eq 14.

streptavidin (SAV) [7] = biological target: T1, streptavidin (SAV); assay: Time-resolved anisotropy, cone angle, SAV complex; format: physicochemical; conditions: complex with SAV
Method: as §1
The lifetimes were collected in a FluoTime100 fluorescence spectrometer (PicoQuant, GmbH, Berlin, Germany) with the excitation light source provided by a picosecond pulsed diode laser (PicoQuant, GmbH, Berlin, Germany) at 470 nm and 20 MHz. […] The fluorescence decays were fit by a nonlinear least-squares minimization based on the Marquardt algorithm embedded in the Fluofit software (PicoQuant GmbH). […] The PicoQuant G factor was calculated according to: G = ∫HV(t)dt/∫HH(t)dt, where HV(t) and HH(t) were the decays collected with the emission polarizer selecting vertical and horizontal E-vector passing orientations, respectively, and the excitation polarizer set at horizontally position. […]
as §4

T2 sequence (P02701 25-152): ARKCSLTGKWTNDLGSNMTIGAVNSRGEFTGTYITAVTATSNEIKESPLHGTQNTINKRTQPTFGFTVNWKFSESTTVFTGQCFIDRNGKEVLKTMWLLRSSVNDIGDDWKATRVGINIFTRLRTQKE
T1 sequence (P22629 25-183): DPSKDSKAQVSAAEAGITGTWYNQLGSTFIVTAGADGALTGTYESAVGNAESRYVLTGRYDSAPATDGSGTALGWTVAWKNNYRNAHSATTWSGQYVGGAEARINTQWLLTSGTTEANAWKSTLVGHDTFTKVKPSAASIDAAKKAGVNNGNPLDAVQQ

Row | SMILES | Lifetime τ (avidin (AV)) [ns] | t (1), fluorescence lifetime (avidin (AV)) | QY [2] | QY (streptavidin (SAV) [3]; complex with SAV) | dQY-SAV (streptavidin (SAV) [3]) | rss, Unbound [4] | Steady State Anisotropy rss (streptavidin (SAV) [5]) | SAV-increment (%) (streptavidin (SAV) [5]) | rss, + SAV (streptavidin (SAV) [5]) | W [6] [°] | W (streptavidin (SAV) [7]) | other results
1 | O=C(O)CCCC[C@@H]1SC[C@@H]2NC(=O)N[C@@H]21 [B7, d-biotin] |  |  |  |  |  |  |  |  |  |  |  | ΔH°rxn (streptavidin (SAV) [1]; ref 19): -26.7 19 kcal/mol; ΔH°rxn (streptavidin (SAV) [1]; ref 19, listed as B): -26.7 6 kcal/mol; ΔG°rxn (streptavidin (SAV) [1]; ref 39): -18.1 kcal/mol and -18.1 36 kcal/mol; ΔH°rxn (streptavidin (SAV) [1]; ref 39): -24.5 kcal/mol and -24.5 36 kcal/mol; ΔS°rxn (streptavidin (SAV) [1]; ref 39): -21.0 [39] cal/mol°K and -21.0 36 cal/mol°K; ΔG°rxn (streptavidin (SAV) [1]; ref 39, listed as B): -18.1 20 kcal/mol; ΔH°rxn (streptavidin (SAV) [1]; ref 39, listed as B): -24.5 20 kcal/mol; ΔS°rxn (streptavidin (SAV) [1]; ref 39, listed as B): -21.0 20 cal/mol°K; ΔH°rxn (streptavidin (SAV) [1]; ref 79): -23.0 kcal/mol and -23.0 72 kcal/mol; ΔH°rxn (streptavidin (SAV) [1]; ref 79, listed as B): -23.0 50 kcal/mol; ΔH°rxn (streptavidin (SAV) [1]; ref 80): -24.9 ± 0.4 kcal/mol and -24.9 ± 0.4 80 kcal/mol; ΔH°rxn (streptavidin (SAV) [1]; ref 80, listed as B): -24.9 ± 0.4 53 kcal/mol; ΔG°rxn (streptavidin (SAV) [1]; ref 83, 84): -18.3 kcal/mol and -18.3 83,84 kcal/mol; ΔG°rxn (streptavidin (SAV) [1]; ref 83, 84, listed as B): -18.3 54, 57 kcal/mol
2 | O=C(CCCC[C@@H]1SC[C@@H]2NC(=O)N[C@@H]21)NCCNC(=O)c1ccc(-c2c3ccc(=O)cc-3oc3cc(O)ccc23)c(C(=O)O)c1 [BFl, Biotin-4-fluorescein] | 4.22 ± 0.01 | 4.22 ± 0.01 | 0.52 and 0.52 ± 0.02 | 0.11 and 0.11 ± 0.01 | -0.7885 | 0.021 | 0.171 ± 0.008 | 714.3 | 0.171 | 90 | 51 | 488, correction, absR/abs [2]: 1; QY multiplied by the 488 correction absR/abs [2]: 0.52; 488, correction, absR/abs (streptavidin (SAV) [3]; complex with SAV): 1.708; QY multiplied by the 488 correction absR/abs (streptavidin (SAV) [3]; complex with SAV): 0.1879
3 | NC(CCCCNC(=O)CCCC[C@@H]1SC[C@@H]2NC(=O)N[C@@H]21)C(=O)NCCCCCNC(=O)c1ccc(-c2c3cc(F)c(=O)cc-3oc3cc(O)c(F)cc23)c(C(=O)O)c1 (some centres unmarked) [BcO, Oregon green 488 Biocytin] | 4.35 ± 0.01 | 4.35 ± 0.01 | 0.91 and 0.91 ± 0.02 | 0.21 ± 0.01 and 0.21 | -0.7692 | 0.023 | 0.053 ± 0.005 | 130.4 | 0.053 | 90 | 50 | Quantum Yield QY (streptavidin (SAV) [3]; SAV complex (AB1)): 0.21 ± 0.01
